Experimental data published in patent US11919901B2 (Syndax Pharmaceuticals, Inc., priority 2021, dated 2024).

Target: Menin-MLL (Homo sapiens (Human), UniProt O00255)
Assay: Determination of binding constants (Ki) to Menin-MLL (HTRF)
Conditions: HTRF, 0.25 nM H-FL-Menin, 3.2 nM FITC-MLL-4-43, 24 hr incubation; for Ki: read-out: Menin-MLL Ki HTRF Assay: Ki

Sequence of Menin-MLL (O00255 whole entry): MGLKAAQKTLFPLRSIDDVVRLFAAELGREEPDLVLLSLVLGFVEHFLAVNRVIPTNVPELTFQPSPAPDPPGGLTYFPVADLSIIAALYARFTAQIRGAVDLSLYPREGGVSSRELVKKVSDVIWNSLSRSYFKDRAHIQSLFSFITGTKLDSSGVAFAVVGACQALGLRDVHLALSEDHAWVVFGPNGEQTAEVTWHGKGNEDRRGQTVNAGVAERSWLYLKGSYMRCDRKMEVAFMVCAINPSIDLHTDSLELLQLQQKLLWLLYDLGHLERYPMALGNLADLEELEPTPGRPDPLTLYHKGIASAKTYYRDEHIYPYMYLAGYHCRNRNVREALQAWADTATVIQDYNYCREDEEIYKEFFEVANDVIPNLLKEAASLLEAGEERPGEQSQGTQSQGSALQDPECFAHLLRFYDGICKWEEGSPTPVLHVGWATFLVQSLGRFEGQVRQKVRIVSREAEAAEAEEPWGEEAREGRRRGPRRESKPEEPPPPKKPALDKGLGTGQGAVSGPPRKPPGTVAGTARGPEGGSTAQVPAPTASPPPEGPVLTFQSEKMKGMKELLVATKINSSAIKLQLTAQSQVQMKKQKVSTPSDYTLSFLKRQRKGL

SMILES	Ki [nM]	EC50 [nM]
Cc1ncc(S(=O)(=O)N[C@@H]2CC[C@@H](CN3CCC4(CC3)CN(c3ncncc3Oc3ccc(F)cc3C(=O)N(C(C)C)C(C)C)C4)OC2)[nH]1 [Compound 234, 5-Fluoro-N,N-diisopropyl-2-((4-(7-(((2S,5R)-5-((2-methyl-1H-imidazole)-5-sulfonamido)tetrahydro-2H-pyran-2-yl)methyl)-2,7-diazaspiro[3.5]nonan-2-yl)pyrimidin-5-yl)oxy)benzamide]	< 1	–
CC(C)N(C(=O)c1cc(F)ccc1Oc1nncnc1N1CC2(CCN(C[C@@H]3CC[C@@H](NS(=O)(=O)c4cnn(C)c4)CO3)CC2)C1)C(C)C [Compound 197, 5-Fluoro-N,N-diisopropyl-2-((5-(7-(((2S,5R)-5-((1-methyl-1H-pyrazole)-4-sulfonamido)tetrahydro-2H-pyran-2-yl)methyl)-2,7-diazaspiro[3.5]nonan-2-yl)-1,2,4-triazin-6-yl)oxy)benzamide]	< 1	–
CC(C)N(C(=O)c1cc(F)ccc1Oc1cncnc1N1CC2(CCN(C[C@@H]3CC[C@@H](NS(=N)(=O)C4CC4)CO3)CC2)C1)C(C)C (stereo partly drawn) [Compound 233, 2-((4-(7-(((2S,5R)-5-(Cyclopropanesulfonoamidimidamido)tetrahydro-2H-pyran-2-yl)methyl)-2,7-diazaspiro[3.5]nonan-2-yl)pyrimidin-5-yl)oxy)-5-fluoro-N,N-diisopropylbenzamide]	< 1	–
Cc1nc(S(=O)(=O)N[C@@H]2CC[C@@H](CN3CCC4(CC3)CN(c3ncncc3Oc3ccc(F)cc3C(=O)N(C(C)C)[C@@H]3CCOC3)C4)OC2)cs1 [Compound 133, 5-Fluoro-N-isopropyl-2-((4-(7-(((2S,5R)-5-((2-methylthiazole)-4-sulfonamido)tetrahydro-2H-pyran-2-yl)methyl)-2,7-diazaspiro[3.5]nonan-2-yl)pyrimidin-5-yl)oxy)-N-((R)-tetrahydrofuran-3-yl)benzamide]	< 1	–
CC(C)N(C(=O)c1cc(F)ccc1Oc1cncnc1N1CC2(CCN(C[C@@H]3CC[C@@H](NS(=N)(=O)c4ccccc4)CO3)CC2)C1)C(C)C (mixture of isomers) [Compound 228, 5-Fluoro-N,N-diisopropyl-2-((4-(7-(((2S,5R)-5-(phenylsulfonoamidimidamido)tetrahydro-2H-pyran-2-yl)methyl)-2,7-diazaspiro[3.5]nonan-2-yl)pyrimidin-5-yl)oxy)benzamide]	< 1	–
CCN(C(=O)c1cc(F)ccc1Oc1cncnc1N1CC2(CCN(C[C@@H]3CC[C@@H](NS(=O)(=O)N(C)CC)CO3)CC2)C1)C(C)C [Compound 140, N-Ethyl-2-((4-(7-(((2S,5R)-5-((N-ethyl-N-methylsulfamoyl)amino)tetrahydro-2H-pyran-2-yl)methyl)-2,7-diazaspiro[3.5]nonan-2-yl)pyrimidin-5-yl)oxy)-5-fluoro-N-isopropylbenzamide]	< 1	–
CCNS(=O)(=O)N[C@@H]1CC[C@@H](CN2CCC3(CC2)CN(c2ncnnc2Oc2ccc(F)cc2C(=O)N(CC(F)F)C(C)C)C3)OC1 [Compound 188, N-(2,2-Difluoroethyl)-2-((5-(7-(((2S,5R)-5-((N-ethylsulfamoyl)amino)tetrahydro-2H-pyran-2-yl)methyl)-2,7-diazaspiro[3.5]nonan-2-yl)-1,2,4-triazin-6-yl)oxy)-5-fluoro-N-isopropylbenzamide]	< 1	–
CCN(C(=O)c1cc(F)ccc1Oc1cncnc1N1CC2(CCN(C[C@@H]3CC[C@@H](NS(=O)(=O)c4cccc(Cl)c4)CO3)CC2)C1)C(C)C [Compound 57, 2-((4-(7-(((2S,5R)-5-((3-Chlorophenyl)sulfonamido)tetrahydro-2H-pyran-2-yl)methyl)-2,7-diazaspiro[3.5]nonan-2-yl)pyrimidin-5-yl)oxy)-N-ethyl-5-fluoro-N-isopropylbenzamide]	< 1	< 50
CCS(=O)(=O)N[C@@H]1CC[C@@H](CN2CCC3(CC2)CN(c2ncncc2Oc2ccc(F)cc2C(=O)N(C(C)C)[C@H]2C[C@@H](O)C2)C3)OC1 [Compound 50, 2-((4-(7-(((2S,5R)-5-(ethylsulfonamido)tetrahydro-2H-pyran-2-yl)methyl)-2,7-diazaspiro[3.5]nonan-2-yl)pyrimidin-5-yl)oxy)-5-fluoro-N-((1s,3s)-3-hydroxycyclobutyl)-N-isopropylbenzamide]	< 1	< 50
CC(C)N(C(=O)c1cc(F)ccc1Oc1cncnc1N1CC2(CCN(C[C@@H]3CC[C@@H](NS(N)(=O)=O)CO3)CC2)C1)C1CC(F)(F)C1 [Compound 117, N-(3,3-Difluorocyclobutyl)-5-fluoro-N-isopropyl-2-((4-(7-(((2S,5R)-5-(sulfamoylamino)tetrahydro-2H-pyran-2-yl)methyl)-2,7-diazaspiro[3.5]nonan-2-yl)pyrimidin-5-yl)oxy)benzamide]	< 1	< 50
CCN(C(=O)c1cc(F)ccc1Oc1cncnc1N1CC2(CCN(C[C@@H]3CC[C@@H](NC(=O)Nc4ccccc4)CO3)CC2)C1)C(C)C [Compound 215, N-Ethyl-5-fluoro-N-isopropyl-2-((4-(7-(((2S,5R)-5-(3-phenylureido)tetrahydro-2H-pyran-2-yl)methyl)-2,7-diazaspiro[3.5]nonan-2-yl)pyrimidin-5-yl)oxy)benzamide]	–	50 to 100
CC(C)N(CC(F)F)C(=O)c1cc(F)ccc1Oc1cncnc1N1CC2(CCN(C[C@@H]3CC[C@@H](NS(=O)(=O)N(C)CCOCc4ccccc4)CO3)CC2)C1 [Compound 238]	< 1	–
C[C@@H]1COC[C@H](C)N1C(=O)c1cc(F)ccc1Oc1cncnc1N1CC2(CCN(C[C@@H]3CC[C@@H](NS(=O)(=O)C4CC4)CO3)CC2)C1 [Compound 26, N-((3R,6S)-6-((2-(5-(2-((3S,5R)-3,5-dimethylmorpholine-4-carbonyl)-4-fluorophenoxy)pyrimidin-4-yl)-2,7-diazaspiro[3.5]nonan-7-yl)methyl)tetrahydro-2H-pyran-3-yl)cyclopropanesulfonamide]	< 1	< 50
C[C@@H]1COC[C@@H](C)N1C(=O)c1cc(F)ccc1Oc1cncnc1N1CC2(CCN(C[C@@H]3CC[C@@H](NS(=O)(=O)c4ccn(C)n4)CO3)CC2)C1 [Compound 127]	< 1	–
CCS(=O)(=O)N[C@@H]1CC[C@@H](CN2CCC3(CC2)CN(c2ncncc2Oc2ccc(F)cc2C(=O)N(C(C)C)C2COC2)C3)OC1 [Compound 48, 2-((4-(7-(((2S,5R)-5-(ethylsulfonamido)tetrahydro-2H-pyran-2-yl)methyl)-2,7-diazaspiro[3.5]nonan-2-yl)pyrimidin-5-yl)oxy)-5-fluoro-N-isopropyl-N-(oxetan-3-yl)benzamide]	< 1	< 50
CCS(=O)(=O)N[C@@H]1CC[C@@H](CN2CCC3(CC2)CN(c2ncncc2Oc2ccc(F)cc2C(=O)N(C(C)C)[C@H]2C[C@H](O)C2)C3)OC1 [Compound 259, 2-((4-(7-(((2S,5R)-5-(Ethylsulfonamido)tetrahydro-2H-pyran-2-yl)methyl)-2,7-diazaspiro[3.5]nonan-2-yl)pyrimidin-5-yl)oxy)-5-fluoro-N-((1r,3r)-3-hydroxycyclobutyl)-N-isopropylbenzamide]	< 1	< 50
Cc1nc(S(=O)(=O)N[C@@H]2CC[C@@H](CN3CCC4(CC3)CN(c3ncncc3Oc3ccc(F)cc3C(=O)N(C)C(C)C)C4)OC2)cs1 [Compound 54, 5-Fluoro-N-isopropyl-N-methyl-2-((4-(7-(((2S,5R)-5-((2-methylthiazole)-4-sulfonamido)tetrahydro-2H-pyran-2-yl)methyl)-2,7-diazaspiro[3.5]nonan-2-yl)pyrimidin-5-yl)oxy)benzamide]	< 1	–
C[C@@H]1COC[C@@H](C)N1C(=O)c1cc(F)ccc1Oc1cncnc1N1CC2(CCN(C[C@@H]3CC[C@@H](NS(=O)(=O)N4CCCC4)CO3)CC2)C1 [Compound 124, N-((3R,6S)-6-((2-(5-(2-((3R,5R)-3,5-Dimethylmorpholine-4-carbonyl)-4-fluorophenoxy)pyrimidin-4-yl)-2,7-diazaspiro[3.5]nonan-7-yl)methyl)tetrahydro-2H-pyran-3-yl)pyrrolidine-1-sulfonamide]	< 1	–
CNS(=O)(=O)N[C@H]1CC[C@H](CN2CCC3(CC2)CN(c2ncncc2Oc2ccc(F)cc2C(=O)N(C(C)C)C2CC2)C3)OC1 (stereo in doubt) [Compound 146, N-Cyclopropyl-5-fluoro-N-isopropyl-2-((4-(7-(((2R,5S)-5-((N-methylsulfamoyl)amino)tetrahydro-2H-pyran-2-yl)methyl)-2,7-diazaspiro[3.5]nonan-2-yl)pyrimidin-5-yl)oxy)benzamide]	< 1	–
CC(C)N(CC(F)F)C(=O)c1cc(F)ccc1Oc1nncnc1N1CC2(CCN(C[C@@H]3CC[C@@H](NS(=O)(=O)C4CC4)CO3)CC2)C1 [Compound 186, 2-((5-(7-(((2S,5R)-5-(Cyclopropanesulfonamido)tetrahydro-2H-pyran-2-yl)methyl)-2,7-diazaspiro[3.5]nonan-2-yl)-1,2,4-triazin-6-yl)oxy)-N-(2,2-difluoroethyl)-5-fluoro-N-isopropylbenzamide]	< 1	–
C=CS(=O)(=O)N[C@@H]1CC[C@@H](CN2CCC3(CC2)CN(c2ncncc2Oc2ccc(F)cc2C(=O)N(CC)C(C)C)C3)OC1 [Compound 219, N-Ethyl-5-fluoro-N-isopropyl-2-((4-(7-(((2S,5R)-5-(vinylsulfonamido)tetrahydro-2H-pyran-2-yl)methyl)-2,7-diazaspiro[3.5]nonan-2-yl)pyrimidin-5-yl)oxy)benzamide]	< 1	–
CCS(=O)(=O)N[C@@H]1CC[C@@H](CN2CCC3(CC2)CN(c2ncnnc2Oc2ccc(F)cc2C(=O)N(CC(F)(F)F)C(C)C)C3)OC1 [Compound 190, 2-((5-(7-(((2S,5R)-5-(Ethylsulfonamido)tetrahydro-2H-pyran-2-yl)methyl)-2,7-diazaspiro[3.5]nonan-2-yl)-1,2,4-triazin-6-yl)oxy)-5-fluoro-N-isopropyl-N-(2,2,2-trifluoroethyl)benzamide]	< 1	–
